Key:
Phytophthora infestans = assay type: in vivo; details: hydrazone 50 ppm with 50 μM CuCl2.2H2O, applied 24 h before inoculation, tomato plants, assessed 7 d after inoculation
[1] = tested on: Leptosphaeria nodorum (LEPTNO); test: In vitro fungitoxicity assay against Leptosphaeria nodorum in copper-minus / copper-plus liquid medium; assay type: cell-based; details: for inhibition of growth at 0.05 µg/mL: Parastagonospora nodorum, copper-minus medium, growth by light scattering, read-out: LEPTNO % Inhn. Minus Copper Observed; for inhibition of growth at 0.05 µg/mL / LEPTNO % Inhn. Plus Copper Observed: test compound 0.05 μg/mL, 25° C., 72 h; for LEPTNO % Inhn. Plus Copper Observed: copper-plus medium (CuCl2.2H2O)
Protocol: In vitro fungitoxicity assays against Leptosphaeria nodorum (LEPTNO) were conducted using the liquid growth medium described by Coursen and Sisler (American Journal of Botany 1960, 47, 541-549) except that copper micronutrient, normally included as CuSO4, was omitted. The medium, termed “copper-minus”, was prepared by dissolving 10 g glucose, 1.5 g K2HPO4, 2 g KH2PO4 and 1 g (NH4)2SO4 in 1 liter of deionized water and treating the solution with 0.5 g Chelex 100 resin (Bio-Rad Analytical grade, 50-100 mesh, sodium form, cat#142-2822) by stirring at room temperature for 1 h. MgSO4.7H2O (0.5 g) was added, and stirring was continued for a further hour. Trace elements (minus CuSO4), and vitamins described by Coursen and Sisler were added from concentrated stock solutions and the entire medium was sterilized by filtration. Medium containing copper was prepared by adding CuCl2.2H2O to the copper-minus medium at 20 μM. […] Copper-minus medium (100 μL) was added to one of the wells and copper-plus medium to the second well. Control wells, included for each medium, received 1 μL DMSO and 100 μL of medium.
LEPTNO was grown on potato dextrose agar in 9 cm diameter petri dishes for 7 days (d). Sterile deionized water (20 mL) was added to a culture plate and spores suspended by scraping the surface gently with a sterile plastic loop. The resulting suspension was filtered through a double layer of sterile cheesecloth. […] The spores were resuspended in copper-minus medium, and the suspension adjusted to 2×10^5 spores per mL. Microtiter plates were inoculated with 100 μL of this spore suspension and the plates incubated at 25° C. for 72 h before assessing fungal growth by measuring light scattering in a NepheloStar plate reader. Growth inhibition was determined by comparing growth in the presence of test compound with growth in control wells lacking test compound.

SMILES	melting point	TLB % control (Phytophthora infestans)	inhibition of growth at 0.05 µg/mL [1]	LEPTNO % Inhn. Plus Copper Observed [1]	LEPTNO % inhibition attributed to copper chloride alone ([1]; CuCl2 10 μM, no test compound, copper-plus vs copper-minus medium across experiments)
C/C(=N\NC(=O)c1sc(C)nc1C)c1ccccc1O [Compound 37]	202 to 204 °C	81%	0%	94.2%	
Cc1cc(C(=O)N/N=C/c2ccccc2O)cs1 [Compound 24]	180 to 182 °C	56%	2.9%	94.8%	
O=C(N/N=C/c1cc(Br)cc(Br)c1O)c1ccc(Cl)s1 [Compound 31]	247 to 248 °C	88%	4.9%	97.8%	
O=C(N/N=C/c1cc(Cl)cc(Cl)c1O)c1ccc(Cl)s1 [Compound 26]	248 to 250 °C	92%	2.7%	97.5%	
Cc1occc1C(=O)N/N=C/c1cc(Br)cc(Br)c1O [Compound 33]	270 to 272 °C	66%	9.1%	97.8%	
CCn1nc(C)cc1C(=O)N/N=C/c1cc(Cl)cc(Cl)c1O [Compound 16]	221 to 222 °C	39%	3.5%	88%	
O=C(N/N=C/c1ccccc1O)c1snnc1-c1ccccc1 [Compound 22]	191 to 192 °C	56%	9.6%	77.9%	
C/C(=N\NC(=O)c1cnn(-c2ccc(Cl)cc2)c1C(F)(F)F)c1ccccc1O [Compound 35]	201 to 202 °C	59%	4.3%	94.8%	
C=CCc1cccc(/C=N/NC(=O)c2ccc(Br)o2)c1O [Compound 11]		31%	12.9%	95.1%	
Cc1cc(C(=O)N/N=C/c2ccccc2O)c2cc(Br)ccc2n1 [Compound 3]	270 to 275 °C	25%	0%	72.9%	
O=C(N/N=C/c1cc(Cl)cc(Cl)c1O)c1ccsc1 [Compound 28]	315 to 318 °C	80%	4.4%	97.6%	
O.O.[Cl][Cu][Cl] [CuCl2, CuCl2.2H2O, reference compound]					9.3 ± 1.6%
O=C(N/N=C/c1ccccc1O)c1sc2ccccc2c1Cl [Compound 19]		44%	0%	92.1%	
O=C(N/N=C/c1ccccc1O)c1cccs1 [Compound 7]		38%	0%	87.3%	
C/C(=N\NC(=O)c1ccoc1C)c1ccccc1O [Compound 9]		60%	3.9%	97%	
O=C(N/N=C/c1cc(Cl)ccc1O)c1cccs1 [Compound 5]		54%	0%	95.8%	
O=C(N/N=C/c1cc(Cl)cc(Cl)c1O)c1ccco1 [Compound 14]		52%	0%	56.2%	
Cc1occc1C(=O)N/N=C/c1cc(Cl)cc(Cl)c1O [Compound 10]		67%	8.7%	98.1%	
Cc1ccc(C(=O)N/N=C/c2cc(Br)cc(Cl)c2O)cn1 [Compound 8]		0%	0%	60.9%	
Cc1occc1C(=O)N/N=C/c1cc(Br)ccc1O [Compound 6]		75%	2.2%	96.7%	

From patent US8563472B2 (priority 2010, dated 2013)
